Reference: article PMC11783601, “Analogue-Sensitive Inhibition of Histone Demethylases Uncovers Member-Specific Function in Ribosomal Protein Synthesis” (Journal of the American Chemical Society, 2025)

Assay: HPLC stability of compound in assay buffer
Type: physicochemical
Conditions: HPLC traces at t=0 hr. and t=5 hr. incubation; integrity confirmed by LC-MS
Procedure: Supplementary Figure S13. HPLC traces of NOL 6 at t=0 hr. (red) and t=5 hr. (blue) incubation
The compound integrity was further
Supplementary Figure S14. MALDI-TOF spectra for demethylase activity of wild type KDM4C
(A) and KDM4C-F187A mutant (B). In each case, topmost panel is assay without the cofactor
2OG (negative control), middle panel is assay with the cofactor (positive control) and the bottom
mutant completely at 50 µM concentration (B). The demethylase activity of F187A mutant is
(1 picture or pasted object on this page, not shown here)

## CC(C)CC(NC(=O)C(=O)O)C(=O)O (stereo not shown) [compound 6, N-oxalyl leucine]
  stability of the compound in assay buffer: confirm the stability
